Test results from US8999456B2, “Method for manufacturing of drug-releasing stent coated with titanium—oxide thin film” (Industry Foundation of Chonnam National University, priority 2009, dated 2015).

Test: Quantity of drug attached to the stent by UV absorbance and calibration curves
Type: physicochemical
Settings: FIG. 7
Experimental: In order to measure the quantity of α-lipoic acid and ReoPro attached to the stent, standard solutions with four concentrations were prepared for each drug. Absorbance was measured using a UV spectrometer (Shimadzu 1601, Japan) at 330 nm for α-lipoic acid and at 278 nm for ReoPro. Thus, calibration curves were drawn for α-lipoic acid and ReoPro. Then, in order to measure the quantity of the drugs attached to the stent, each 500 μL of the reaction solution was taken before and after the reaction, which were diluted by mixing with triple distilled water (2.5 mL) and subjected to absorbance measurement at 278 nm and 330 nm, respectively. The measurement result was compared with the calibration curves to determine the quantity of α-lipoic acid and ReoPro attached to the stent.
After binding a drug on the surface of the stent that had been modified with hydroxyl groups, the amount of the bound drug was calculated using the calibration curves. […] Therefore, it can be seen that a 10 to 50 W is ideal for modification of the titanium dioxide thin film using water.

quantity of attached α-lipoic acid (discharge power applied for the surface modification 20 W): 250 µg
quantity of attached α-lipoic acid (surface modification at 60 W): decreased remarkably
quantity of attached α-lipoic acid (thin films modified at 10, 30, 40 and 50 W): about 150 μg
SMILES: O=C(O)CCCCC1CCSS1 (stereo not drawn) [α-lipoic acid]
